± gives the expanded uncertainty stated by the source.
Experiments:
[1] = Liquid
[2] = xn = mol fraction of the nth substance listed; settings: Liquid, Vibrating wire viscometry, x1 = 1

CCC(C)O (centres undefined) [butan-2-ol]
viscosity [mPa·s], [1]
Settings	293.15 K	298.15 K	313.15 K	333.15 K	353.15 K
100 kPa, Concentric cylinders viscometry	3.744 ± 0.041	–	1.832 ± 0.021	1.011 ± 0.012	0.6218 ± 0.0083
100 kPa, Vibrating wire viscometry	3.767 ± 0.06	3.102 ± 0.049	1.839 ± 0.03	1.007 ± 0.017	0.6198 ± 0.011
1000 kPa, Vibrating wire viscometry	3.813 ± 0.06	3.123 ± 0.05	1.862 ± 0.03	1.023 ± 0.017	0.6273 ± 0.011
5000 kPa, Vibrating wire viscometry	3.978 ± 0.063	3.28 ± 0.052	1.947 ± 0.031	1.078 ± 0.018	0.6577 ± 0.012
10000 kPa, Vibrating wire viscometry	4.235 ± 0.067	3.462 ± 0.055	2.041 ± 0.033	1.133 ± 0.019	0.6999 ± 0.012
20000 kPa, Vibrating wire viscometry	4.696 ± 0.074	3.873 ± 0.061	2.262 ± 0.036	1.254 ± 0.021	0.7717 ± 0.013
30000 kPa, Vibrating wire viscometry	5.159 ± 0.082	4.253 ± 0.067	2.503 ± 0.04	1.372 ± 0.023	0.8354 ± 0.014
40000 kPa, Vibrating wire viscometry	5.693 ± 0.09	4.697 ± 0.074	2.734 ± 0.044	1.491 ± 0.024	0.9088 ± 0.015
50000 kPa, Vibrating wire viscometry	6.274 ± 0.099	5.142 ± 0.081	2.99 ± 0.048	1.624 ± 0.026	0.9898 ± 0.017
60000 kPa, Vibrating wire viscometry	6.831 ± 0.11	5.553 ± 0.088	3.237 ± 0.051	1.759 ± 0.029	1.07 ± 0.018
70000 kPa, Vibrating wire viscometry	7.377 ± 0.12	6.044 ± 0.095	3.558 ± 0.056	1.905 ± 0.031	1.151 ± 0.019
80000 kPa, Vibrating wire viscometry	8.056 ± 0.13	6.544 ± 0.1	3.841 ± 0.061	2.081 ± 0.034	1.242 ± 0.021
100000 kPa, Vibrating wire viscometry	9.598 ± 0.15	7.646 ± 0.12	4.456 ± 0.071	2.427 ± 0.039	1.444 ± 0.024
120000 kPa, Vibrating wire viscometry	11.31 ± 0.18	9.053 ± 0.14	5.179 ± 0.082	2.716 ± 0.043	1.644 ± 0.027
140000 kPa, Vibrating wire viscometry	13.38 ± 0.21	10.43 ± 0.16	5.933 ± 0.094	3.099 ± 0.049	1.845 ± 0.03

CCC(C)O (centres undefined) [butan-2-ol] + Cc1ccc(C)c(C)c1
viscosity [mPa·s], [2]
Settings	293.15 K	298.15 K	313.15 K	333.15 K	353.15 K
100 kPa	3.767 ± 0.06	3.102 ± 0.049	1.839 ± 0.03	1.007 ± 0.017	0.6198 ± 0.011
1000 kPa	3.813 ± 0.06	3.123 ± 0.05	1.862 ± 0.03	1.023 ± 0.017	0.6273 ± 0.011
5000 kPa	3.978 ± 0.063	3.28 ± 0.052	1.947 ± 0.031	1.078 ± 0.018	0.6577 ± 0.012
10000 kPa	4.235 ± 0.067	3.462 ± 0.055	2.041 ± 0.033	1.133 ± 0.019	0.6999 ± 0.012
20000 kPa	4.696 ± 0.074	3.873 ± 0.061	2.262 ± 0.036	1.254 ± 0.021	0.7717 ± 0.013
30000 kPa	5.159 ± 0.082	4.253 ± 0.067	2.503 ± 0.04	1.372 ± 0.023	0.8354 ± 0.014
40000 kPa	5.693 ± 0.09	4.697 ± 0.074	2.734 ± 0.044	1.491 ± 0.024	0.9088 ± 0.015
50000 kPa	6.274 ± 0.099	5.142 ± 0.081	2.99 ± 0.048	1.624 ± 0.026	0.9898 ± 0.017
60000 kPa	6.831 ± 0.11	5.553 ± 0.088	3.237 ± 0.051	1.759 ± 0.029	1.07 ± 0.018
70000 kPa	7.377 ± 0.12	6.044 ± 0.095	3.558 ± 0.056	1.905 ± 0.031	1.151 ± 0.019
80000 kPa	8.056 ± 0.13	6.544 ± 0.1	3.841 ± 0.061	2.081 ± 0.034	1.242 ± 0.021
100000 kPa	9.598 ± 0.15	7.646 ± 0.12	4.456 ± 0.071	2.427 ± 0.039	1.444 ± 0.024
120000 kPa	11.31 ± 0.18	9.053 ± 0.14	5.179 ± 0.082	2.716 ± 0.043	1.644 ± 0.027
140000 kPa	13.38 ± 0.21	10.43 ± 0.16	5.933 ± 0.094	3.099 ± 0.049	1.845 ± 0.03

Reference: the NIST ThermoML archive (doi:10.1016/j.jct.2018.05.027)
